“Also recorded” adds a separate entry of the source.
Tests used:
[1] = total radioactivity in whole blood of patients (LSC); assay type: in vivo, human; details: n = 4
Description: Part 1 of the study included a screening phase of up to 28 days prior to drug administration to assess eligibility. Patients were admitted to the clinical research unit (CRU) at Royal Liverpool University Hospital (Liverpool, UK)/Clatterbridge Cancer Centre NHS Foundation Trust (Bebington, Wirral, UK) on day −1 and received a single dose of 60‐mg/100 μCi [^14C]‐pamiparib orally the morning of day 1. Patients remained in the CRU until completion of assessments on day 7, when discharge criteria of ≈90% of the radioactive dose being recovered or <1% of the radioactive dose being recovered in urine and feces for 2 consecutive 24‐hour collection intervals were met. […]
Patients fasted overnight and 2 hours after oral administration of a single 60‐mg dose containing ≈100 μCi (3.7‐3.9 MBq) of [^14C]‐pamiparib with ≈240 mL of room‐temperature water or juice (orange or grape). The residual radioactivity present in each vial postdose was corrected from the dose. The radioactive dose of 100 μCi of [^14C]‐pamiparib provided minimum risk to patients according to the dosimetry calculation from a quantitative whole‐body autoradiography study in male and female Long Evans rats; the dose also provided sufficient signal for total radioactivity counting and quantitative radioprofiling in blood, plasma, and excreta (data on file). […]

PARP1 = test system: PARP1; set-up: method as in PMID 33264017; details: read-out: PARP1 inhibition IC50; cited from earlier work
CYP2C8 = target: T1, CYP2C8 (Homo sapiens, UniProt P10632); experiment: CYP450 phenotyping in HLMs with CYP2C8 inhibitor montelukast; assay type: in vitro ADME; details: 90‐minute HLM incubation with CYP2C8 inhibitor montelukast (16 μM)
T1 construct: tissue Corning (Woburn, New York); host or cells: pooled human liver microsomes
T1 sequence (P10632 1-490): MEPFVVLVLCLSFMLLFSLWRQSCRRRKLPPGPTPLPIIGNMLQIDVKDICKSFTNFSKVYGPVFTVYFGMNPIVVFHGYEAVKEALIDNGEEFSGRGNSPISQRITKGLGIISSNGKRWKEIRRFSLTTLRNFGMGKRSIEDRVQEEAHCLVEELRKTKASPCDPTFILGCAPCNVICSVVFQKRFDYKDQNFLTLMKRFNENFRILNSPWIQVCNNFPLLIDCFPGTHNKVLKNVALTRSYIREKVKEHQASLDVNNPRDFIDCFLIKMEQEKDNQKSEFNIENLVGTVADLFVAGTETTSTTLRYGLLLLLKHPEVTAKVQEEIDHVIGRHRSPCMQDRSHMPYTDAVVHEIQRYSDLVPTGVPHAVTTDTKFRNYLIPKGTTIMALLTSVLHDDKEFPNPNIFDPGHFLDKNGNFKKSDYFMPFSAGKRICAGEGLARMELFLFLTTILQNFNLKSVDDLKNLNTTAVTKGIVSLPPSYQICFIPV
Method: Metabolic stability in human liver microsomes (HLMs) and cytochrome P450 (CYP450) phenotyping assays were conducted in 3D BioOptima (Suzhou, China) using validated methodology, [13] to determine the intrinsic clearance and enzymes responsible for metabolism of pamiparib. HLMs for microsome stability was from BD Biosciences (Woburn, New York). For phenotyping, HLMs and recombinant P450 (rCYP) were from Corning (Woburn, New York). Pamiparib (1 μM) was incubated with pooled HLM (0.5 mg/mL), NADPH (1 mM), and MgCl2 (3 mM) terminated at 0, 5, 15, 30, 60, and 90 minutes. The intrinsic clearance was calculated as 0.693/(t1/2 × HLM concentration), where t1/2 is the half‐life of pamiparib determined in HLMs. For phenotyping in HLMs, pamiparib (1 μM) was incubated in the absence or presence of isoform‐selective inhibitors: 0.2 μM α‐naphthoflavone for CYP1A2, 2 μM clopidogrel for CYP2B6, 16 μM montelukast for CYP2C8, 10 μM sulfaphenazole for CYP2C9, 30 μM nootkatone for CYP2C19, 2 μM quinidine for CYP2D6, and 1 μM ketoconazole for CYP3A. The following isoform‐selective probe substrates served as positive controls: 40 μM phenacetin for CYP1A2, 100 μM bupropion for CYP2B6, 2 μM amodiaquine for CYP2C8, 5 μM diclofenac for CYP2C9, 40 μM S‐mephenytoin for CYP2C19, 5 μM dextromethorphan for CYP2D6, and 2 μM midazolam for CYP3A4. […] Pamiparib, M1, and M2 were analyzed by LC‐MS/MS.

SMILES: C[C@]12CCCN1CC1=NNC(=O)c3cc(F)cc4[nH]c2c1c34 [Pamiparib]
- AUC0‐∞ ratio blood/plasma, geometric mean (CV%) [1]: ≈ 0.764; also recorded: ≈ 0.76
- IC50 (PARP1): 1.3 nM
- pamiparib remaining (CYP2C8): 82.9%

Source: PMC8453745, “Human Mass Balance and Metabolite Profiling of [^14C]‐Pamiparib, a Poly (ADP‐Ribose) Polymerase Inhibitor, in Patients With Advanced Cancer” (Clinical Pharmacology in Drug Development, 2021)
